Measurements published in paper PMC11994961, “In Vivo pharmacokinetic interactions of ribociclib with rivaroxaban and apixaban in rats: implications for increased drug exposure and dose adjustments” (Frontiers in Pharmacology, 2025).
“Also recorded” adds a separate entry of the source. Like-named read-outs stand apart in the source and are kept apart here.

Key:
[1] = Pharmacokinetic study of ribociclib in rats, alone and after rivaroxaban or apixaban (UPLC-MS/MS plasma levels); type: in vivo, Sprague-Dawley rats; details: for Cmax / AUC(0-inf) / AUC(0-t) / Tmax / half-life / CL/F / MRT inf / MRT last / Vd/F: Sprague-Dawley, rat, plasma, 60 mg/kg; for CL/F: read-out: CLz/F (converted); for MRT inf: read-out: MRT0- ∞; for MRT last: read-out: MRT0-t; for Vd/F: read-out: Vz/F
Method: Experimental animals were randomly divided into nine groups (n = 6, Table 1). Ribociclib was suspended in methylcellulose (MC), rivaroxaban was prepared in hydroxypropyl methylcellulose (HPMC), and apixaban was suspended in 5% DMSO in water. To achieve steady-state blood concentrations, a drug typically requires five to seven half-lives. Based on this principle, ribociclib was administered orally for eight consecutive days, while rivaroxaban and apixaban were administered orally for five consecutive days to ensure steady-state concentrations were reached before further analysis. Approximately 0.1 mL of blood was collected into heparinized tubes via the orbitalat specified time points before and after the final drug administration. […] Blood samples were centrifuged at 3,500 rpm for 10 min, and the supernatant was collected and stored at −80°C until processing for UPLC-MS/MS. Apixaban and rivaroxaban concentrations in plasma samples were determined using our previously established UPLC-MS/MS method ([Wang et al., 2023]). Ribociclib concentrations were quantified using an LC-30A UPLC system (Shimadzu, Kyoto, Japan) coupled with a Sciex Triple Quad 5500 tandem quadrupole mass spectrometer (AB Sciex, Framingham, MA, United States) equipped with an electrospray ionization interface. Chromatographic separation was performed using a Welch Boltimate column (2.1 mm × 100 mm, 2.7 μm) maintained at 40°C. The mobile phase was composed of water containing 0.1% formic acid (phase A) and acetonitrile (phase B). The flow rate was held constant at 0.3 mL/min. […] The injection volume was 1 μL. The mass spectrometer operated in positive ion mode and multiple reaction monitoring (MRM) mode for detection and quantification. The monitored transitions of precursors to product ions were as follows: 441.3→332.1 for ribociclib-d6 and 435.3.→322.1 for ribociclib (Figure 1). The mass spectrometer conditions, including delustering potential (DP) and collision energy (CE) of the compounds, are shown in Table 2. Other parameters of the mass spectrometer were as follows: ion source gas 160.0 psi; ion source gas 2,50.0 psi; curtain gas, 25.0 psi. The source temperature was 500°C and the ion spray voltage was 5,500 V. A 50 µL plasma sample was mixed with 5 µL of the IS working solution, followed by the addition of 150 µL of acetonitrile. The mixture was vortexed for 2 min and then centrifuged at 12,000 rpm for 10 min. Next, 70 µL of the supernatant was collected and mixed with 70 µL of 50% (v/v) of acetonitrile in water. The mixture was vortexed for 1 min, and then 1 µL was injected into the UPLC-MS/MS system for analysis. […] The area under the concentration–time curve (AUC), maximum plasma concentration (Cmax), time to maximum plasma concentration (Tmax), the time required to eliminate half of the plasma drug concentration (t1/2), clearance of drug plasma volume per unit time (CLz/F), apparent volume distribution (Vz/F), mean residence time (MRT) and the absorption rate constant (Ka) are all expressed as mean ± standard deviation (SD). SPSS 25.0 statistical software (SPSS Inc., Chicago, IL, United States) was applied to statistically analyze the mainpharmacokinetic parameters. Shapiro-Wilk test was used to assess whether the data were normally distributed, t test was used for parameters conforming to the normal distribution, and Mann-Whitney U test was used for parameters not conforming to the normal distribution. Statistical comparisons were conducted using a analysis of variance, t-test or nonparametric rank-sum test depending on the data type.

[2] = Stability of ribociclib QC samples in rat plasma; type: in vitro ADME; details: room temperature, autosampler 15°C, −80°C, three freeze-thaw cycles
Method: The method was validated per the guidelines of the Food and Drug Administration (US-FDA, 2022) and Chinese Pharmacopoeia (2020). Selectivity was determined by analyzing blank plasma samples from six different batches of rats and plasma samples from six different batches of rats after administration of ribociclib. There should be no interference, with retention times such that the blank plasma peak area is less than 5% of the internal standard (IS) and less than 20% of the lower limit of quantification (LLOQ). The calibration curves were evaluated using 10–4,000 ng/mL of ribociclib. Linearity was assessed by plotting the peak area ratios of the analyte to the IS against nominal concentrations, using weighted (1/x^2) least-squares linear regression. Accuracy and precision were determined for all concentrations derived from the calibration curves, ensuring that deviations were within 15% of the nominal concentration, except for the LLOQ, where the deviation should not exceed 20%. Precision and accuracy were assessed by analyzing plasma samples at low, medium, high, and LLOQ concentration levels over three consecutive days. The final precision and accuracy were determined by calculating the relative standard deviation (RSD) and relative error (RE) of the six samples. RSD and RE for QC concentrations were required to be within ±15%, and for the LLOQ, within ±20%. […]

[3] = set-up: method as in Samant et al., 2020; details: ref Samant et al., 2020, cited from earlier work
[4] = po, rats, RIBO 60 mg/kg after API 0.5 mg/kg for 5 days
[5] = po, rats, RIBO 60 mg/kg after RIVA 2 mg/kg for 5 days
[6] = po, rats, oral RIBO 60 mg/kg alone

Question: Which Cmax ([1]; oral, rats administered 60 mg/kg) does the source give for `CN(C)C(=O)c1cc2cnc(Nc3ccc(N4CCNCC4)cn3)nc2n1C1CCCC1` [RIBO, ribociclib] here?
Answer: ~1500 ng/mL

Question: And the AUC(0-inf) [1, 4]?
Answer: 25200 ng·h/mL

Question: And the AUC(0-t) [1, 4]?
Answer: 24500 ng·h/mL

Question: And the Cmax [1, 4]?
Answer: 2080 ± 400 ng/mL

Question: What about the Tmax [1, 4] of the same molecule?
Answer: 4.33 ± 1.37 h

Question: What about the half-life [1, 4] of the same molecule?
Answer: 8.25 ± 2.87 h

Question: And the CL/F [1, 4]?
Answer: 40.2 mL/min/kg

Question: And the MRT inf [1, 4]?
Answer: 11 ± 2.83 h

Question: And the MRT last [1, 4]?
Answer: 9.71 ± 1.15 h

Question: And the Vd/F [1, 4]?
Answer: 28.3 ± 8.33 L/kg

Question: And the AUC(0-inf) [1, 5]?
Answer: 21500 ng·h/mL

Question: What about the AUC(0-t) [1, 5] of the same molecule?
Answer: 21400 ng·h/mL

Question: What about the Cmax [1, 5] of the same molecule?
Answer: 1600 ng/mL

Question: What about the Tmax [1, 5] of the same molecule?
Answer: 4.33 ± 0.52 h

Question: And the half-life [1, 5]?
Answer: 6.13 ± 1.41 h

Question: And the CL/F [1, 5]?
Answer: 47.2 mL/min/kg

Question: What about the MRT inf [1, 5] of the same molecule?
Answer: 10.1 ± 2.16 h

Question: What about the MRT last [1, 5] of the same molecule?
Answer: 9.77 ± 1.74 h

Question: And the Vd/F [1, 5]?
Answer: 24.7 ± 4.85 L/kg

Question: What about the AUC(0-inf) [1, 6] of the same molecule?
Answer: 20800 ng·h/mL

Question: And the AUC(0-t) [1, 6]?
Answer: 20300 ng·h/mL

Question: What about the Cmax [1, 6] of the same molecule?
Answer: 1620 ng/mL

Question: What about the Tmax [1, 6] of the same molecule?
Answer: 2.4 ± 0.89 h

Question: And the half-life [1, 6]?
Answer: 7.87 ± 4.17 h

Question: And the CL/F [1, 6]?
Answer: 49.3 mL/min/kg

Question: And the MRT inf [1, 6]?
Answer: 11.8 ± 4.35 h

Question: What about the MRT last [1, 6] of the same molecule?
Answer: 10.1 ± 1.79 h

Question: What about the Vd/F [1, 6] of the same molecule?
Answer: 35.5 ± 26.3 L/kg

Question: What about the “changes in the pharmacokinetic parameters” value ([1]; rats, RIBO 60 mg/kg after multiple doses of apixaban vs alone) of the same molecule?
Answer: no significant changes; also recorded: did not alter

Question: What about the “changes in the pharmacokinetic parameters” value ([1]; rats, RIBO 60 mg/kg after multiple doses of rivaroxaban vs alone) of the same molecule?
Answer: no significant changes; also recorded: did not alter

Question: What about the “slight increase in Cmax” value ([1]; rats, RIBO 60 mg/kg, apixaban group vs alone) of the same molecule?
Answer: not statistically significant

Question: And the “stability of QC samples” value [2]?
Answer: excellent stability

Question: And the “reduction of AUC” value ([3]; with rifampicin, a strong CYP3A inducer)?
Answer: 89%

Question: What about the “increase of AUC” value ([3]; with ritonavir, a strong CYP3A inhibitor) of the same molecule?
Answer: 3.2 fold
